Data from ChEMBL document CHEMBL4828760, “Chalcogenides-incorporating carbonic anhydrase inhibitors concomitantly reverted oxaliplatin-induced neuropathy and enhanced antiproliferative action” (Eur J Med Chem, 2021).
Calls of active or inactive are those of the source.

Assays:
Carbonic anhydrase 9 = Carbonic anhydrase 9 (Homo sapiens, UniProt Q16790); assay: Inhibition of recombinant human CA9 pre-incubated for 15 mins measured by phenol red dye based stopped flow CO2 hydration assay
Mus musculus [1] = assay: Anti-hypersensitive activity in CD-1 albino mouse model of oxaliplatin-induced neuropathic pain assessed as restoration of normal pain threshold at 100 mg/kg, po administered 14 days post oxaliplatin induction and measured upto 75 mins by cold plate test; format: functional, organism-based; settings: time min <=75
Mus musculus [2] = assay: Antiallodynic activity in po dosed CD-1 albino mouse model of oxaliplatin-induced neuropathic pain assessed as reduction in pain-related behavior administered 14 days post oxaliplatin induction and measured upto 75 mins by cold plate test; format: functional, organism-based; settings: dose 10-100 mg/kg, time 14.0 day
MCF7 [3] = assay: Cytotoxicity against human MCF7 cells assessed as reduction in cell viability at 100 uM measured after 72 hrs under hypoxic condition in presence of doxorubicin by MTT assay; format: functional, cell-based
MCF7 [4] = assay: Cytotoxicity against human MCF7 cells assessed as reduction in cell viability at 100 uM measured after 72 hrs under hypoxic condition in presence of cisplatin by MTT assay; format: functional, cell-based
Mus musculus [5] = assay: Anti-hypersensitive activity in CD-1 albino mouse model of oxaliplatin-induced neuropathic pain assessed as restoration of normal pain threshold at 30 to 100 mg/kg, po administered 14 days post oxaliplatin induction and measured upto 75 mins by cold plate test; format: functional, organism-based; settings: dose 30-100 mg/kg, time min <=75
Mus musculus [6] = assay: Anti-hypersensitive activity in CD-1 albino mouse model of oxaliplatin-induced neuropathic pain assessed as restoration of normal pain threshold at 10 mg/kg, po administered 14 days post oxaliplatin induction and measured upto 75 mins by cold plate test; format: functional, organism-based; settings: time min <=75
MCF7 [7] = assay: Cytotoxicity against human MCF7 cells assessed as reduction in cell viability measured after 72 hrs under hypoxic condition by MTT assay; settings: MCF7, 72 h

## NS(=O)(=O)c1ccc(SCC(O)C[Se]c2ccccc2)cc1 (stereo unspecified)
Carbonic anhydrase 9
  Ki: 29.2 nM
Mus musculus [1]
  Activity: Active
Mus musculus [2]
  Activity: Dose-Dependent Effect

## NS(=O)(=O)c1ccc([Se]CC(O)CSc2ccccc2)cc1 (stereo unspecified)
MCF7 [3]
  Activity: Active
MCF7 [4]
  Activity: inactive
Carbonic anhydrase 9
  Ki: 288 nM

## C=CCOCC(O)C[Se]CC(O)C[Se]c1ccc(S(N)(=O)=O)cc1 (stereo unspecified)
Carbonic anhydrase 9
  Ki: 157 nM

## NS(=O)(=O)c1ccc(SCC(O)CSc2ccccc2Br)cc1 (stereo unspecified)
Carbonic anhydrase 9
  Ki: 175 nM

## NS(=O)(=O)c1ccc([Se]CC(O)CSc2ccc(Br)cc2)cc1 (stereo unspecified)
Mus musculus [5]
  Activity: Active
Carbonic anhydrase 9
  Ki: 172 nM
Mus musculus [6]
  Activity: Active
Mus musculus [2]
  Activity: Dose-Dependent Effect

## COc1cc([Te]CC(O)CSc2ccc(S(N)(=O)=O)cc2)cc(OC)c1OC (stereo unspecified)
MCF7 [3]
  Activity: Active
MCF7 [4]
  Activity: Active
Carbonic anhydrase 9
  Ki: 187 nM
MCF7 [7]
  IC50: 125000 nM

## COc1ccc([Se]CC(O)CSc2ccc(S(N)(=O)=O)cc2)cc1 (stereo unspecified)
Carbonic anhydrase 9
  Ki: 156 nM

## Cc1ccccc1[Se]CC(O)C[Se]c1ccc(S(N)(=O)=O)cc1 (stereo unspecified)
Carbonic anhydrase 9
  Ki: 29.4 nM

## Cc1ccc([Te]CC(O)C[Se]c2ccc(S(N)(=O)=O)cc2)cc1 (stereo unspecified)
Carbonic anhydrase 9
  Ki: 152 nM

## CCCC[Se]CC(O)CSc1ccc(S(N)(=O)=O)cc1 (stereo unspecified)
MCF7 [3]
  Activity: Active
MCF7 [4]
  Activity: Active
Carbonic anhydrase 9
  Ki: 164 nM

## C=CCOCC(O)C[Se]CC(O)CSc1ccc(S(N)(=O)=O)cc1 (stereo unspecified)
Carbonic anhydrase 9
  Ki: 241 nM

## CC(O)CSCC(O)C[Se]c1ccc(S(N)(=O)=O)cc1 (stereo unspecified)
Carbonic anhydrase 9
  Ki: 275 nM

## NS(=O)(=O)c1ccc([Se]CC(O)C[Se]c2ccccc2)cc1 (stereo unspecified)
Mus musculus [5]
  Activity: Active
Carbonic anhydrase 9
  Ki: 84.5 nM
Mus musculus [2]
  Activity: Dose-Dependent Effect

## NS(=O)(=O)c1ccc([Se]CC(O)CSc2ncccn2)cc1 (stereo unspecified)
Carbonic anhydrase 9
  Ki: 31 nM

## Cc1ccc(S(=O)(=O)N[C@@H](C)CSCC(O)CSc2ccc(S(N)(=O)=O)cc2)cc1 (stereo partly specified)
Carbonic anhydrase 9
  Ki: 193 nM

## CCCC[Se]CC(O)C[Se]c1ccc(S(N)(=O)=O)cc1 (stereo unspecified)
Carbonic anhydrase 9
  Ki: 208 nM

## NS(=O)(=O)c1ccc(SCC(O)CSc2cccc(Br)c2)cc1 (stereo unspecified)
Carbonic anhydrase 9
  Ki: 135 nM
